The results in this text go back to PubChem BioAssay AID588774 (The Scripps Research Institute Molecular Screening Center, 2011).

One experiment deals with pPAFAH. The experiment is described as follows: pPAFAH inhibition and serine hydrolase selectivity, SAR follow-up, selectivity assay for pPAFAH inhibitor project, biochemical, gel-based, FP-Rh fluorescence, complex proteome, SAR compounds (AID 588774).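 For inhibition: 0% = DMSO-only band intensity and 100% = blank gel background.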 The following applies: gel-based competitive ABPP, anti-targets inhibited, at 10 µM.
A further experiment concerns ABHD3. The description is as above. Particulars: gel-based competitive ABPP, at 10 µM, stronger effect = higher value.
Assay in experiment [1]: as above
The following applies: gel-based competitive ABPP, at 10 µM.

In another experiment the test system is LYPLA2. The description is as above. Particulars: gel-based competitive ABPP, stronger effect = higher value.
A further experiment concerns ABHD6. The description is as above. Particulars: gel-based competitive ABPP, stronger effect = higher value.
The target of a further experiment is ABHD4 (UniProt Q8VD66). The description is as above. The following applies: gel-based competitive ABPP, stronger effect = higher value.
Experiment [2] deals with Platelet-activating factor acetylhydrolase (Mus musculus) (UniProt Q60963). Described as above. The following applies: gel-based competitive ABPP, pPAFAH, stronger effect = higher value.
The next experiment concerns LYPLA1. Described as above. The following applies: gel-based competitive ABPP, stronger effect = higher value.
In a further experiment the test system is FAAH. The description is as above. Particulars: gel-based competitive ABPP, stronger effect = higher value.
For experiment [3], the target named is Monoglyceride lipase (Mus musculus) (UniProt O35678). The description is as above. Particulars: gel-based competitive ABPP, MAGL, stronger effect = higher value.

The source made the active and inactive calls.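 Rule for the calls: active = target enzyme inhibited at least 50% at a set dose, and selective over every off-target enzyme by a set factor; inactive = weaker inhibition or too little selectivity.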

Chain of Monoglyceride lipase (Mus musculus) (O35678 whole entry, looked up): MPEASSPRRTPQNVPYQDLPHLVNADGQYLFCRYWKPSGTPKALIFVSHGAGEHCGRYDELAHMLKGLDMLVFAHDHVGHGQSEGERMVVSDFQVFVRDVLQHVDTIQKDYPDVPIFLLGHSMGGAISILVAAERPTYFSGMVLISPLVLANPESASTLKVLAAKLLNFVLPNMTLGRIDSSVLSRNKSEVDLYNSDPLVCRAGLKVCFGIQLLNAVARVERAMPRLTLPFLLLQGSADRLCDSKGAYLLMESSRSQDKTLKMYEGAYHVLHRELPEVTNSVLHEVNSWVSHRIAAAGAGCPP
Chain of ABHD4 (Q8VD66 whole entry, looked up): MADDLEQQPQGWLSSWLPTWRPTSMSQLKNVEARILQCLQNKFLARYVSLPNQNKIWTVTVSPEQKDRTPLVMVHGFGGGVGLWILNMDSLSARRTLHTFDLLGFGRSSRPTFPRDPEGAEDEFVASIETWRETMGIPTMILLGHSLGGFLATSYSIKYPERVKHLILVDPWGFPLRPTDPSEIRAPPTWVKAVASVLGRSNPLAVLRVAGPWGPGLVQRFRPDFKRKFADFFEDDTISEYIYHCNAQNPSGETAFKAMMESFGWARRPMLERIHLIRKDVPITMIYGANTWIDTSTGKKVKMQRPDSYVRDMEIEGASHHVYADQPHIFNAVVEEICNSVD
Chain of Platelet-activating factor acetylhydrolase (Mus musculus) (Q60963 whole entry, looked up): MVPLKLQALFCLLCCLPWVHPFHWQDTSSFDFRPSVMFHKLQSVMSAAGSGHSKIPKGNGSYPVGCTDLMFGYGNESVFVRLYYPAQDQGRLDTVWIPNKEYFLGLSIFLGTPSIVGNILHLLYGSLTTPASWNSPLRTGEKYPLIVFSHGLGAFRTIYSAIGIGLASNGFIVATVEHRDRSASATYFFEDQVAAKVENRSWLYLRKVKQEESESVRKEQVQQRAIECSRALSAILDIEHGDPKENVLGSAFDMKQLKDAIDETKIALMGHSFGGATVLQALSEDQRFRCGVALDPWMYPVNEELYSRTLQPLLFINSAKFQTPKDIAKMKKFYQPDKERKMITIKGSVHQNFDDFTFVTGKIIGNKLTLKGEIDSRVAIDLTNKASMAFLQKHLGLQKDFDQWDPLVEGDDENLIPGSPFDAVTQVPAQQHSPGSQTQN

Usually inhibition stands for the change of the read-out against control, counted positive when it falls. For the compound `Cc1cc(N2CCN(C(=O)Oc3ccc(-n4cccc4)cc3)CC2)c2ccccc2n1`, the anti-target count turned out to be 0 in the experiment on pPAFAH; 0 in experiment [1] (ABHD3, anti-targets inhibited); 0 in experiment [1] (ABHD4, anti-targets inhibited); 0 in experiment [1] (ABHD6, anti-targets inhibited); 0 in [1] (FAAH, anti-targets inhibited); 0 in experiment [1] (LYPLA1, anti-targets inhibited). For the same compound, the anti-target count in experiment [1] (LYPLA2, anti-targets inhibited) amounted to 0; in [1] (MAGL, anti-targets inhibited), 0. In addition, the inhibition was 0% (inactive) with ABHD3; 0% (inactive) in the experiment with LYPLA2 (at 10 µM); 0% (inactive) in the experiment with ABHD6 (at 10 µM); 0% (inactive) at ABHD4 (at 10 µM); 87% (inactive) in [2] (at 10 µM); 35% in experiment [2] (inhibition, at 0.1 µM). Also, the inhibition in experiment [2] (inhibition, at 1 µM) is 80%; with LYPLA1 (at 10 µM), 0% (inactive); with FAAH (at 10 µM), 0% (inactive); in experiment [3] (at 10 µM), 0% (inactive).

For `Cc1cc(N2CCN(C(=O)Oc3ccc([N+](=O)[O-])cc3)CC2)c2ccccc2n1`, the anti-target count was found to be 2 in the experiment with pPAFAH; 2 in experiment [1] (ABHD3, anti-targets inhibited); 2 in experiment [1] (ABHD4, anti-targets inhibited); 2 in experiment [1] (ABHD6, anti-targets inhibited); 2 in experiment [1] (FAAH, anti-targets inhibited); 2 in experiment [1] (LYPLA1, anti-targets inhibited). Moreover, the anti-target count was 2 in [1] (LYPLA2, anti-targets inhibited) and 2 in [1] (MAGL, anti-targets inhibited). Also, the inhibition in the experiment with ABHD3 is 0% (inactive); with LYPLA2 (at 10 µM) it was 0% (inactive); with ABHD6 (at 10 µM), 0% (inactive); at ABHD4 (at 10 µM) it was 0% (inactive); in experiment [2] (at 10 µM) it was 100% (inactive); in experiment [2] (inhibition, at 0.1 µM), 47%. Moreover, the inhibition in experiment [2] (inhibition, at 1 µM) is 95%; in the experiment on LYPLA1 (at 10 µM), 0% (inactive); with FAAH (at 10 µM), 71% (inactive); in the experiment with FAAH (inhibition, at 0.1 µM) it was 16%; with FAAH (inhibition, at 1 µM), 36%; in experiment [3] (at 10 µM), 64% (inactive). The inhibition in [3] (inhibition, at 0.1 µM) is 23%; in experiment [3] (inhibition, at 1 µM), 51%.

For the compound `Cc1cc(N2CCN(C(=O)Oc3ccc(C4CCCC4)cc3)CC2)c2ccccc2n1`, the anti-target count with pPAFAH is 0; in [1] (ABHD3, anti-targets inhibited) it was 0; in experiment [1] (ABHD4, anti-targets inhibited), 0; in [1] (ABHD6, anti-targets inhibited), 0; in [1] (FAAH, anti-targets inhibited), 0; in experiment [1] (LYPLA1, anti-targets inhibited) it was 0. For the same compound, the anti-target count in [1] (LYPLA2, anti-targets inhibited) came out at 0; in [1] (MAGL, anti-targets inhibited), 0. The inhibition in the experiment on ABHD3 is 0% (inactive); in the experiment on LYPLA2 (at 10 µM), 0% (inactive); in the experiment on ABHD6 (at 10 µM), 0% (inactive); at ABHD4 (at 10 µM), 27% (inactive); in [2] (at 10 µM), 91% (inactive); in experiment [2] (inhibition, at 0.1 µM), 28%. The inhibition in [2] (inhibition, at 1 µM) was 82%; with LYPLA1 (at 10 µM), 0% (inactive); in the experiment on FAAH (at 10 µM), 0% (inactive); in experiment [3] (at 10 µM), 0% (inactive).

For `Cc1cc(N2CCN(C(=O)Oc3ccc(C4CCCCC4)cc3)CC2)c2ccccc2n1`, the anti-target count with pPAFAH came out at 0; in [1] (ABHD3, anti-targets inhibited), 0; in experiment [1] (ABHD4, anti-targets inhibited), 0; in [1] (ABHD6, anti-targets inhibited), 0; in experiment [1] (FAAH, anti-targets inhibited) it was 0; in [1] (LYPLA1, anti-targets inhibited), 0. The anti-target count in experiment [1] (LYPLA2, anti-targets inhibited) worked out at 0; in [1] (MAGL, anti-targets inhibited), 0. Moreover, the inhibition was 0% (inactive) with ABHD3; 0% (inactive) with LYPLA2 (at 10 µM); 0% (inactive) in the experiment on ABHD6 (at 10 µM); 0% (inactive) on ABHD4 (at 10 µM); 95% (inactive) in experiment [2] (at 10 µM); 2% in experiment [2] (inhibition, at 0.1 µM). The inhibition is 63% in [2] (inhibition, at 1 µM); 0% (inactive) in the experiment on LYPLA1 (at 10 µM); 0% (inactive) with FAAH (at 10 µM); 0% (inactive) in experiment [3] (at 10 µM).

Consider `Cc1cc(N2CCN(C(=O)Oc3ccc(C(F)(F)F)cc3)CC2)c2ccccc2n1`, for which the anti-target count in the experiment with pPAFAH was found to be 1; in experiment [1] (ABHD3, anti-targets inhibited), 1; in [1] (ABHD4, anti-targets inhibited), 1; in experiment [1] (ABHD6, anti-targets inhibited) it was 1; in experiment [1] (FAAH, anti-targets inhibited), 1; in [1] (LYPLA1, anti-targets inhibited), 1. In addition, the anti-target count in experiment [1] (LYPLA2, anti-targets inhibited) was 1; in experiment [1] (MAGL, anti-targets inhibited), 1. Further, the inhibition in the experiment on ABHD3 was 0% (inactive); with LYPLA2 (at 10 µM), 0% (inactive); with ABHD6 (at 10 µM), 0% (inactive); at ABHD4 (at 10 µM), 72% (inactive); at ABHD4 (inhibition, at 0.1 µM), 32%; at ABHD4 (inhibition, at 1 µM), 39%. The inhibition in experiment [2] (at 10 µM) is 93% (inactive); in experiment [2] (inhibition, at 0.1 µM), 46%; in [2] (inhibition, at 1 µM) it was 87%; with LYPLA1 (at 10 µM) it was 0% (inactive); in the experiment with FAAH (at 10 µM), 0% (inactive); in experiment [3] (at 10 µM) it was 0% (inactive).

Turning to `Cc1cc(N2CCN(C(=O)n3oc4cc(Cl)ccc4c3=O)CC2)c2ccccc2n1`, the anti-target count in the experiment with pPAFAH was determined as 3; in experiment [1] (ABHD3, anti-targets inhibited), 3; in experiment [1] (ABHD4, anti-targets inhibited), 3; in experiment [1] (ABHD6, anti-targets inhibited), 3; in experiment [1] (FAAH, anti-targets inhibited) it was 3; in experiment [1] (LYPLA1, anti-targets inhibited) it was 3. Also, the anti-target count turned out to be 3 in experiment [1] (LYPLA2, anti-targets inhibited) and 3 in experiment [1] (MAGL, anti-targets inhibited). Also, the inhibition is 0% (inactive) with ABHD3; 24% (inactive) with LYPLA2 (at 10 µM); 3% in the experiment with LYPLA2 (inhibition, at 0.1 µM); 6% in the experiment with LYPLA2 (inhibition, at 1 µM); 38% (inactive) with ABHD6 (at 10 µM); 19% in the experiment with ABHD6 (inhibition, at 0.1 µM). Further, the inhibition in the experiment on ABHD6 (inhibition, at 1 µM) was 32%; at ABHD4 (at 10 µM), 48% (inactive); at ABHD4 (inhibition, at 0.1 µM), 36%; on ABHD4 (inhibition, at 1 µM) it was 38%; in experiment [2] (at 10 µM), 99%; in experiment [2] (inhibition, at 0.1 µM) it was 87%. The inhibition is 87% in [2] (inhibition, at 1 µM); 73% (inactive) in the experiment with LYPLA1 (at 10 µM); 13% with LYPLA1 (inhibition, at 1 µM); 99% (inactive) with FAAH (at 10 µM); 39% in the experiment with FAAH (inhibition, at 0.1 µM); 79% in the experiment on FAAH (inhibition, at 1 µM). Further, the inhibition in experiment [3] (at 10 µM) is 97%; in experiment [3] (inhibition, at 0.1 µM), 54%; in experiment [3] (inhibition, at 1 µM) it was 73%.

In the case of `Cc1cc(N2CCN(C(=O)Oc3ccc(-c4ccccc4)cc3)CC2)c2ccccc2n1`, the anti-target count was determined as 0 in the experiment on pPAFAH; 0 in [1] (ABHD3, anti-targets inhibited); 0 in [1] (ABHD4, anti-targets inhibited); 0 in experiment [1] (ABHD6, anti-targets inhibited); 0 in experiment [1] (FAAH, anti-targets inhibited); 0 in experiment [1] (LYPLA1, anti-targets inhibited). The anti-target count is 0 in experiment [1] (LYPLA2, anti-targets inhibited) and 0 in experiment [1] (MAGL, anti-targets inhibited). In addition, the inhibition in the experiment with ABHD3 is 0% (inactive); with LYPLA2 (at 10 µM), 0% (inactive); in the experiment with ABHD6 (at 10 µM), 0% (inactive); at ABHD4 (at 10 µM), 0% (inactive); in experiment [2] (at 10 µM), 100%; in experiment [2] (inhibition, at 0.1 µM) it was 66%. The inhibition in experiment [2] (inhibition, at 1 µM) was 95%; with LYPLA1 (at 10 µM), 0% (inactive); in the experiment with FAAH (at 10 µM), 0% (inactive); in experiment [3] (at 10 µM), 0% (inactive).
